ChEMBL document CHEMBL1201862, “PubChem BioAssay data set” (2004)
Several values for one entry are separate records, joined by “and”; a condition that tells them apart may be missing. Equal values may be shown once.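 Compound exposure: 48 hours, 5 concentrations, 96-well plates. Here, GI50 denotes the concentration required for 50% inhibition of growth.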 Activity calls are given as the source filed them. Cut-off read from the data, not from the text of the source: active = GI50 up to about 1.1 µM and inactive = higher.

Experiments:
Experiment in all cases: growth of human tumour cells (NCI), 48 h
[1] = test system: ACHN
[2] = test system: COLO 205
[3] = test system: DU-145
[4] = test system: HCT-116
[5] = test system: HOP-62
[6] = test system: HT-29
[7] = test system: K562
[8] = test system: KM12
[9] = test system: NCI-H23
[10] = test system: OVCAR-4
[11] = test system: RXF 393
[12] = test system: SF-268
[13] = test system: SF-295
[14] = test system: SK-OV-3
[15] = test system: SN12C
[16] = test system: SNB-19
[17] = test system: SNB-75
[18] = test system: SW-620
[19] = test system: UACC-62
[20] = test system: HCC 2998

Measured: GI50

Cn1c(=S)c2nc(SCCCc3ccccc3)[nH]c2n(C)c1=O
inactive: [1] 27.2 µM | [2] 12.6 µM | [3] 36.1 µM | [4] 21.8 µM | [5] 17.3 µM | [6] 22.8 µM | [7] 19.7 µM | [8] 19.5 µM | [9] 16.7 µM | [10] 13 µM | [11] 56.5 µM | [12] 32.5 µM | [13] 11.4 µM | [14] 42.2 µM | [15] 26.5 µM | [16] 16.6 µM | [17] 22.6 µM | [18] 36.4 µM | [19] 26.2 µM

Cc1cc(C)c(O)c(Cc2cccc(Cc3cc(C)cc(C)c3O)c2O)c1
inactive: [1] > 100 µM | [2] > 100 µM | [3] > 100 µM | [4] > 100 µM | [5] > 100 µM | [6] > 100 µM | [7] 35.9 µM | [8] > 100 µM | [9] > 100 µM | [10] > 100 µM | [11] > 100 µM | [12] > 100 µM | [13] > 100 µM | [14] > 100 µM | [15] > 100 µM | [16] > 100 µM | [17] > 100 µM | [18] > 100 µM | [19] > 100 µM

OCc1cc2c([nH]c3ccccc32)c(C(O)CO)n1 (centres undefined)
inactive: [1] > 100 µM | [2] > 100 µM | [3] > 100 µM | [20] > 100 µM | [4] > 100 µM | [6] > 100 µM | [7] > 100 µM | [8] > 100 µM | [9] > 100 µM | [10] > 100 µM | [12] > 100 µM | [13] > 100 µM | [14] > 100 µM | [15] > 100 µM | [16] > 100 µM | [17] > 100 µM | [18] > 100 µM | [19] > 100 µM

O=c1[nH]nc(Cc2ccccc2)n1O
inactive: [1] > 100 µM | [2] > 100 µM | [3] > 100 µM | [4] > 100 µM | [5] > 100 µM | [6] > 100 µM | [7] > 100 µM | [8] > 100 µM | [9] > 100 µM | [10] > 100 µM | [12] > 100 µM | [13] > 100 µM | [14] > 100 µM | [15] > 100 µM | [16] > 100 µM | [18] > 100 µM | [19] > 100 µM

COc1cccc2c1-c1c(OC)cccc1SS2
inactive: [1] 41.8 µM | [2] 20 µM | [3] 28.9 µM | [20] 20.9 µM | [4] 18.2 µM | [5] 47.2 µM | [6] 17.3 µM | [7] 27.5 µM | [8] 34 µM | [9] 18.6 µM | [10] 21.8 µM | [11] 17.5 µM | [12] 22.6 µM | [13] 19.9 µM | [15] 13.8 µM | [16] 24.8 µM | [18] 20.4 µM | [19] 20.1 µM

C=CCOc1ccc(C(=N/NC(=O)c2ccccc2)/N=N/c2ccc(C)cc2)cc1OC
inactive: [1] 34.8 µM | [2] 16.5 µM | [3] 37.2 µM | [20] 18.7 µM | [4] 19 µM | [5] 37.8 µM | [6] 20.3 µM | [8] 18.1 µM | [9] 20.2 µM | [10] 37.9 µM | [12] 52.7 µM | [13] 32 µM | [15] 31.7 µM | [16] 50 µM | [17] 20.2 µM | [18] 31.4 µM | [19] 14.3 µM

O=C1/C(=C/c2ccco2)NC(=S)N1CN1CCCCC1
inactive: [1] 34 µM | [2] 51.4 µM | [3] > 100 µM | [4] 57.4 µM | [5] > 100 µM | [6] 25.8 µM | [7] 60.1 µM | [8] > 100 µM | [9] > 100 µM | [10] 13.3 µM | [12] 68.4 µM | [13] > 100 µM | [14] > 100 µM | [15] > 100 µM | [16] 22.6 µM | [17] 58.5 µM | [18] 38.5 µM | [19] 57.9 µM

Cn1c(=O)c2c(ncn2Cc2ccc(O)c([N+](=O)[O-])c2)n(C)c1=O
inactive: [1] > 100 µM | [2] > 100 µM | [3] > 100 µM | [4] > 100 µM | [5] > 100 µM | [6] > 100 µM | [7] > 100 µM | [8] > 100 µM | [9] > 100 µM | [10] > 100 µM | [12] > 100 µM | [13] > 100 µM | [14] > 100 µM | [15] > 100 µM | [16] > 100 µM | [17] > 100 µM | [18] > 100 µM | [19] > 100 µM

O=CNCCCN1CCN(CCCNC=O)CC1
inactive: [1] > 100 µM | [2] > 100 µM | [3] > 100 µM | [20] > 100 µM | [4] > 100 µM | [5] > 100 µM | [6] > 100 µM | [7] > 100 µM | [8] > 100 µM | [9] > 100 µM | [10] > 100 µM | [12] 4.88 µM | [13] > 100 µM | [14] > 100 µM | [15] > 100 µM | [16] > 100 µM | [18] > 100 µM | [19] > 100 µM

CC1CC/C(=C\c2ccc(F)cc2)C2=C1C(c1ccc(F)cc1)NC(=S)N2 (centres undefined)
inactive: [1] 54.3 µM | [2] 30.6 µM | [3] 46.8 µM | [4] 32.9 µM | [6] 29 µM | [7] 35.5 µM | [8] 24.7 µM | [9] 30.7 µM | [11] 25.2 µM | [12] 91.4 µM | [13] 54.7 µM | [14] > 100 µM | [15] 97.7 µM | [16] > 100 µM | [18] 80.4 µM | [19] > 100 µM

COC(=O)C(=O)C(C(=O)C(=O)Nc1cccc(OC)c1)c1nc2ccc(Cl)cc2nc1O (centres undefined)
inactive: [1] > 100 µM | [2] > 100 µM | [3] > 100 µM | [20] 96.2 µM | [4] > 100 µM | [6] > 100 µM | [7] > 100 µM | [8] > 100 µM | [9] > 100 µM | [10] > 100 µM | [12] > 100 µM | [13] > 100 µM | [14] > 100 µM | [15] > 100 µM | [16] > 100 µM | [17] > 100 µM | [18] > 100 µM | [19] 89.3 µM

COC(=O)[C@@H]1CC(C(C[N+](=O)[O-])c2ccc(O[Si](C)(C)C(C)(C)C)cc2)C(=O)N1C(=O)OC(C)(C)C (some centres undefined)
inactive: [3] > 100 µM | [4] 63.1 µM | [5] > 100 µM | [7] 22.9 µM and 32.4 µM | [8] > 100 µM and 76.6 µM | [10] 53.6 µM and 29.6 µM | [11] 29.9 µM and 20.6 µM | [12] > 100 µM and 95.3 µM | [13] > 100 µM and 59.2 µM | [14] > 100 µM | [15] 43.6 µM and 69.8 µM | [16] > 100 µM | [17] > 100 µM | [18] > 100 µM

CC(C)=CCC/C(C)=C/Cc1c2c(c3oc(-c4ccc(O)c(O)c4)c(O)c(=O)c3c1O)C=CC(C)(C)O2
inactive: [1] 2.22 µM | [2] 1.64 µM | [3] 2.24 µM | [4] 2.57 µM | [5] 4.45 µM | [6] 2.71 µM | [7] 2.44 µM | [8] 3.45 µM | [9] 5.41 µM | [10] 2.25 µM | [11] 7.71 µM | [12] 3.56 µM | [13] 5.62 µM | [14] 2.57 µM | [15] 5.98 µM | [16] 5.85 µM | [17] 5.22 µM | [19] 5.31 µM

C#CCOC(=O)C(N)CS (centres undefined)
inactive: [1] > 100 µM | [2] > 100 µM | [3] > 100 µM | [4] > 100 µM | [5] > 100 µM | [6] > 100 µM | [7] > 100 µM | [8] > 100 µM | [9] > 100 µM | [11] > 100 µM | [12] > 100 µM | [13] > 100 µM | [14] > 100 µM | [15] > 100 µM | [17] > 100 µM | [18] > 100 µM | [19] > 100 µM

O=c1c(O)c(-c2ccc(O)c(O)c2)oc2cc(O)ccc12 [FISETIN]
inactive: [1] 18.7 µM | [2] 47.4 µM | [20] 18.1 µM | [4] 16.3 µM | [5] 20.2 µM | [6] 25.8 µM | [7] 25 µM | [8] 5.62 µM | [9] 11.6 µM | [10] 31 µM | [11] 23.9 µM | [12] 24.9 µM | [13] 18.5 µM | [14] 9.66 µM | [15] 20.8 µM | [16] 10.7 µM | [17] 5.27 µM | [18] 23.8 µM | [19] 10.7 µM
